This is an account of results in US7314885B2, “Pyrrole compounds useful as kinase inhibitors” (Vertex Pharmaceuticals Incorporated, priority 2003, dated 2008).

This experiment addresses c-Met (Homo sapiens, UniProt P08581). The experiment in a line: Ki determination for the inhibition of c-Met (coupled enzyme system). The format is biochemical. The note with it: coupled enzyme assay; 200 μM ATP, 10 μM polyGluTyr, 80 nM c-Met, 30° C. The protocol:
Ki Determination for the Inhibition of c-Met
Compounds were screened for their ability to inhibit c-Met kinase activity using a standard coupled enzyme system (Fox et al., Protein Sci. 1998, 7, 2249). Reactions were carried out in a solution containing 100 mM HEPES (pH 7.5), 10 mM MgCl2, 25 mM NaCl, 300 μM NADH, 1 mM DTT, and 1.5% DMSO. Final substrate concentrations in the assay were 200 μM ATP (Sigma Chemicals, St Louis, Mo.) and 10 μM polyGluTyr (Sigma Chemical Company, St. Louis). Reactions were carried out at 30° C. and 80 nM c-Met. Final concentrations of the components of the coupled enzyme system were 2.5 mM phosphoenolpyruvate, 300 μM NADH, 30 μg/ml pyruvate kinase and 10 μg/ml lactate dehydrogenase.
An assay stock buffer solution was prepared containing all of the reagents listed above with the exception of ATP and a test compound of the present invention. The assay stock buffer solution (175 μl) was incubated in a 96 well plate with 5 μl of the test compound of the present invention at final concentrations spanning 0.006 μM to 12.5 μM at 30° C. for 10 minutes. Typically, a 12-point titration was conducted by preparing serial dilutions (from 10 mM compound stocks) with DMSO of the test compounds of the present invention in daughter plates. The reaction was initiated by the addition of 20 μl of ATP (final concentration 200 μM). Rates of reaction were obtained using a Molecular Devices Spectramax plate reader (Sunnyvale, Calif.) over 10 minutes at 30° C. The Ki values were determined from the rate data as a function of inhibitor concentration.

Bounds are passed on as bounds.

For orientation: Ki means a measure of affinity in units of concentration, obtained from inhibition or displacement. Read a high Ki as weaker binding.

Chain of c-Met (P08581 25-1390): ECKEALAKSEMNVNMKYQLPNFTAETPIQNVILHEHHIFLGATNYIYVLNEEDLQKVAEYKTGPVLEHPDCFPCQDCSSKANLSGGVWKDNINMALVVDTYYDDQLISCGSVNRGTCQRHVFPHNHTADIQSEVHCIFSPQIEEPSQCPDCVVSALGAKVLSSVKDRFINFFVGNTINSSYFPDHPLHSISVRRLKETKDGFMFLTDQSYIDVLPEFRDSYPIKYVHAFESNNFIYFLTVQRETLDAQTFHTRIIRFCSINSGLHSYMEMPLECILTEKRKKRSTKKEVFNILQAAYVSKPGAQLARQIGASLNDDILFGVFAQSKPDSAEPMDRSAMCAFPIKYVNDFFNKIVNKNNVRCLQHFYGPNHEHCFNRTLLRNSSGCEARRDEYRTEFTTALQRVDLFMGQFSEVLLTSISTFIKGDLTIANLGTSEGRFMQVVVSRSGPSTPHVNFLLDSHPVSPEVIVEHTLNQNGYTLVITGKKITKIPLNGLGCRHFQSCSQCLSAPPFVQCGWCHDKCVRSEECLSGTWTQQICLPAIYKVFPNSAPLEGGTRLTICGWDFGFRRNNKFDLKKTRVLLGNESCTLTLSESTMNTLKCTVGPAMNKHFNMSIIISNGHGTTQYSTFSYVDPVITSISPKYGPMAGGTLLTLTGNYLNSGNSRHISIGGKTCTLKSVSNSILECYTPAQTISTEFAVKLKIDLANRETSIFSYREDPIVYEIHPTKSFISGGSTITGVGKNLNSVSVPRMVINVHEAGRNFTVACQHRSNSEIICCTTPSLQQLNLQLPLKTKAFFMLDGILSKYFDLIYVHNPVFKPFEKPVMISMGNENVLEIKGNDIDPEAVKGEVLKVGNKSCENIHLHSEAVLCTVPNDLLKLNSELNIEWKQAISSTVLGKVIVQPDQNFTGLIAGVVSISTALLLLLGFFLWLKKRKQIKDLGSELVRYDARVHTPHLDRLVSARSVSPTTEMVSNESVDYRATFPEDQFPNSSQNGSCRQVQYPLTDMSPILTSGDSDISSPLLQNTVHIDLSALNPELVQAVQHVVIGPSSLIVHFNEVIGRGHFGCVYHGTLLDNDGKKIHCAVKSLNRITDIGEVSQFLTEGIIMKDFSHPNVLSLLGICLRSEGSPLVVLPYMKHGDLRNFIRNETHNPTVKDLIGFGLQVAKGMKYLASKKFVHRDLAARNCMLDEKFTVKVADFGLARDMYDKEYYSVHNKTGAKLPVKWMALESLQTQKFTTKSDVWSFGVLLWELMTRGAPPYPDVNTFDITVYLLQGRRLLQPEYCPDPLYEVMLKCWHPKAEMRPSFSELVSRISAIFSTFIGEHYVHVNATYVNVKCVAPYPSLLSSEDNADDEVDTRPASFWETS

On to `O=C(NCCCn1ccnc1)c1cc(-n2cnnc2-c2cccc(F)c2F)c[nH]1` [Compound I-44, N-(3-(1H-imidazol-1-yl)propyl)-4-(3-(2,3-difluorophenyl)-4H-1,2,4-triazol-4-yl)-1H-pyrrole-2-carboxamide], for which the Ki was greater than 10 µM.

As for `O=C(NC[C@@H]1CCCO1)c1cc(-c2cnoc2-c2cccc(F)c2F)c[nH]1` [Compound I-4, 4-[5-(2,3-Difluoro-phenyl)-isoxazol-4-yl]-1H-pyrrole-2-carboxylic acid (S-tetrahydro-furan-2-ylmethyl)-amide], the Ki is 1 to 10 µM.

With `O=C(NC[C@@H]1CCCO1)c1cc(-c2nnnn2-c2cccc(F)c2F)c[nH]1` (stereo in doubt) [Compound I-24, 4-[1-(2,3-Difluoro-phenyl)-1H-tetrazol-5-yl]-1H-pyrrole-2-carboxylic acid (tetrahydro-furan-2-ylmethyl)-amide], the Ki was 1 to 10 µM.

`O=C(NCCCn1ccnc1)c1cc(-c2nncn2-c2cccc(Cl)c2Cl)c[nH]1` [Compound I-41] had an inhibitory constant (Ki) of 1 to 10 µM.

Consider `O=C(NC[C@@H]1CCCO1)c1cc(-c2nncn2-c2cccc(Cl)c2Cl)c[nH]1` [Compound I-39], for which the inhibitory constant (Ki) was in the range of 1 to 10 µM.

As to `O=C(NC[C@@H]1CCCO1)c1cc(-n2cncc2-c2cccc(F)c2F)c[nH]1` [Compound I-10, 4-[5-(2,3-Difluoro-phenyl)-imidazol-1-yl]-1H-pyrrole-2-carboxylic acid (S-tetrahydro-furan-2-ylmethyl)-amide], the Ki lay within 1 to 10 µM.

`O=C(c1cc(-n2nnnc2-c2cccc(F)c2F)c[nH]1)N1CC=CC1` [Compound I-38, (4-(5-(2,3-difluorophenyl)-1H-tetrazol-1-yl)-1H-pyrrol-2-yl)(2H-pyrrol-1(5H)-yl)methanone] yielded a Ki of 1 to 10 µM.

Turning to `O=C(NC[C@@H]1CCCO1)c1cc(-c2cncn2-c2cccc(F)c2F)c[nH]1` (stereo in doubt) [Compound I-16, 4-[3-(2,3-Difluoro-phenyl)-3H-imidazol-4-yl]-1H-pyrrole-2-carboxylic acid (tetrahydro-furan-2-ylmethyl)-amide], the Ki is 1 to 10 µM.

As for `O=C(c1cc(-c2[nH]nnc2-c2cccc(F)c2F)c[nH]1)N1CCCC1` [Compound I-47], the inhibition constant Ki lay within 1 to 10 µM.

Consider `O=C(c1cc(-c2nncn2-c2cccc(F)c2F)c[nH]1)N1CC=CC1` [Compound I-37, (4-(4-(2,3-difluorophenyl)-4H-1,2,4-triazol-3-yl)-1H-pyrrol-2-yl)(2H-pyrrol-1(5H)-yl)methanone], for which the inhibition constant (Ki) is greater than 10 µM.

Compound `O=C(c1cc(-c2nncn2-c2cccc(Cl)c2Cl)c[nH]1)N1CC=CC1` [Compound I-40] had an inhibition constant (Ki) of 1 to 10 µM.

The compound `O=C(NC[C@@H]1CCCO1)c1cc(-c2sncc2-c2cccc(F)c2F)c[nH]1` [Compound I-46, 4-(4-(2,3-difluorophenyl)isothiazol-5-yl)-N-(((S)-tetrahydrofuran-2-yl)methyl)-1H-pyrrrole-2-carboxamide] displayed a Ki of 1 to 10 µM.
